In ChEMBL document CHEMBL3232786, “Therapeutic utility of cannabinoid receptor type 2 (CB(2)) selective agonists” (J Med Chem, 2013):

Assays:
Cannabinoid receptor 2 [1] = target: T1, Cannabinoid receptor 2 (Homo sapiens, UniProt P34972); experiment: Agonist activity at human CB2 receptor transfected in CHO-K1 cells assessed as cAMP change; assay type: functional, cell-based
Cannabinoid receptor 1 [2] = target: T2, Cannabinoid receptor 1 (Homo sapiens, UniProt P21554); experiment: Agonist activity at human CB1 receptor transfected in CHO-K1 cells assessed as cAMP change; assay type: functional, cell-based
T2 sequence (P21554 whole entry): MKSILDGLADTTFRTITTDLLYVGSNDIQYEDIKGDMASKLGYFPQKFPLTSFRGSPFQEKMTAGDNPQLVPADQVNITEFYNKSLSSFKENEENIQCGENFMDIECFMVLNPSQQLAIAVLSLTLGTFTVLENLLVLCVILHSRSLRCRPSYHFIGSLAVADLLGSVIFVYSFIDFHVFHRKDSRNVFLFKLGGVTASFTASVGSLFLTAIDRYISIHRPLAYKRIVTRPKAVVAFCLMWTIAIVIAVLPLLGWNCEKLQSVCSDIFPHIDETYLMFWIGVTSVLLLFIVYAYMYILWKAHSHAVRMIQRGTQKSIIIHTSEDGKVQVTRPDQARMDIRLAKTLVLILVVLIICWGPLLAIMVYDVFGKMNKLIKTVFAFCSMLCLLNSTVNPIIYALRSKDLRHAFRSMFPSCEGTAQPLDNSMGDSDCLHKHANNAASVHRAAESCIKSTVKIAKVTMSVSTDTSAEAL

Homo sapiens [3] = organism: Homo sapiens; experiment: Selectivity index, ratio of EC50 for human CB1 receptor to EC50 for human CB2 receptor
Cannabinoid receptor 1 [4] = target: T2, Cannabinoid receptor 1; experiment: Agonist activity at CB1 receptor (unknown origin)
Cannabinoid receptor 2 [5] = target: T1, Cannabinoid receptor 2; experiment: Displacement of [3H]-CP55940 from human CB2 receptor expressed in HEK293 cells after 90 mins by liquid scintillation counting; assay type: cell-based
Cannabinoid receptor 1 [6] = target: T2, Cannabinoid receptor 1; experiment: Displacement of [3H]-CP55940 from human CB1 receptor expressed in HEK293 cells after 90 mins by liquid scintillation counting; assay type: cell-based
Mus musculus = experiment: Antinociceptive activity against iv dosed ICR mouse measured at 20 mins by tail flick test; assay type: functional
Cannabinoid receptor 2 [7] = target: T1, Cannabinoid receptor 2; experiment: Agonist activity at human CB2 receptor expressed in Saccharomyces cerevisiae MMY23 using fluorescein di-beta-D-glucopyranoside as substrate after 24 hrs by fluorescence-based assay
Cannabinoid receptor 1 [8] = target: T3, Cannabinoid receptor 1 (Rattus norvegicus, UniProt P20272); experiment: Displacement of [3H]-CP55940 from CB1 receptor of rat cerebellar membranes by liquid scintillation counting in presence of serine protease inhibitor PMSF; design: species or system Cerebellum, Membrane
T3 sequence (P20272 whole entry): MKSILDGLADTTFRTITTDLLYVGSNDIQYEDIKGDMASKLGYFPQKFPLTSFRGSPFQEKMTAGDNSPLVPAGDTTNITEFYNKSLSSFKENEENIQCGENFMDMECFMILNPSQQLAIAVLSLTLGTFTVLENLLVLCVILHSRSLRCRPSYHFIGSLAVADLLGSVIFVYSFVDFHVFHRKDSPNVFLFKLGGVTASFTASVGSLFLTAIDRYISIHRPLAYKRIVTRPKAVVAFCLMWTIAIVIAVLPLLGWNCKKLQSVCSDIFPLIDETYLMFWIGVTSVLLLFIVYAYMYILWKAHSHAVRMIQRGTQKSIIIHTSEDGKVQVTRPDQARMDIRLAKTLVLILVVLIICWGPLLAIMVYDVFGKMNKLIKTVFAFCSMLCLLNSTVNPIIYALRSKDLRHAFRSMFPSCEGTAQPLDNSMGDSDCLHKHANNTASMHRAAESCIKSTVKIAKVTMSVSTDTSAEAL

Cannabinoid receptor 2 [9] = target: T4, Cannabinoid receptor 2 (Rattus norvegicus, UniProt Q9QZN9); experiment: Displacement of [3H]-CP55940 from CB2 receptor of rat spleen membranes by liquid scintillation counting in presence of serine protease inhibitor PMSF; assay type: tissue-based, Membrane
T4 sequence (Q9QZN9 whole entry): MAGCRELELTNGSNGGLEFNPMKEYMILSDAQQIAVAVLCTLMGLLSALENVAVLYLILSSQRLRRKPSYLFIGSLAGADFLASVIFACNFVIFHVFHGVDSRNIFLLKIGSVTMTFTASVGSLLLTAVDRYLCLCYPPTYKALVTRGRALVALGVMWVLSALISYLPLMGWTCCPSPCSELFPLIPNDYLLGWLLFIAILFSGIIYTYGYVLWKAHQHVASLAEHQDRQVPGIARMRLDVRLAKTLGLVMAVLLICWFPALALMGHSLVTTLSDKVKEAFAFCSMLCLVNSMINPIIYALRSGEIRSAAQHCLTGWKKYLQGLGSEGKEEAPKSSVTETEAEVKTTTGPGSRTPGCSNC

Rattus norvegicus = organism: Rattus norvegicus; experiment: Selectivity ratio of Ki for CB2 receptor of rat spleen membranes to Ki for CB1 receptor of rat cerebellar membranes; assay type: tissue-based
Cannabinoid receptor 2 [10] = target: T1, Cannabinoid receptor 2; experiment: Displacement of [3H]-CP55940 from human CB2 receptor expressed in CHO-K1 cells by liquid scintillation counting; assay type: cell-based
Cannabinoid receptor 1 [11] = target: T2, Cannabinoid receptor 1; experiment: Displacement of [3H]-CP55940 from human CB1 receptor expressed in CHO-K1 cells by liquid scintillation counting; assay type: cell-based
Homo sapiens [12] = organism: Homo sapiens; experiment: Selectivity ratio of Ki for human CB1 receptor to Ki for human CB2 receptor
Cannabinoid receptor 2 [13] = target: T4, Cannabinoid receptor 2; experiment: Displacement of [3H]-CP55940 from rat CB2 receptor expressed in CHO-K1 cells by liquid scintillation spectrophotometry; assay type: cell-based
[14] = Displacement of [3H]-CP55940 from cynomolgus monkey CB2 receptor by liquid scintillation counting; design: species or system Macaca fascicularis
Cannabinoid receptor 2 [15] = target: Cannabinoid receptor 2 (Mus musculus, UniProt P47936); experiment: Displacement of [3H]-CP55940 from mouse CB2 receptor by liquid scintillation counting
Chain of Cannabinoid receptor 2 (Mus musculus, UniProt P47936) (P47936 whole entry): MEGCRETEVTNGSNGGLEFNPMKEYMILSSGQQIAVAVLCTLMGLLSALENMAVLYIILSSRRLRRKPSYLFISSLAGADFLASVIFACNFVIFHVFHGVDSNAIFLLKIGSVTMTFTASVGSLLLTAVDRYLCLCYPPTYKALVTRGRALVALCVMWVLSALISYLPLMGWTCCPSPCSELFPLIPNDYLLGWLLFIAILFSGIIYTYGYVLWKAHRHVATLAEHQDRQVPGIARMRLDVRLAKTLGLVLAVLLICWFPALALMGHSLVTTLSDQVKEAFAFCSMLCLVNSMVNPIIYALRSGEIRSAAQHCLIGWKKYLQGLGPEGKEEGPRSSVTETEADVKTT

Cannabinoid receptor 2 [16] = target: T1, Cannabinoid receptor 2; experiment: Agonist activity at human CB2 receptor expressed in Sf9 membranes assessed as effect on [35S]-GTPgammaS binding after 30 mins by scintillation counting; assay type: functional, cell membranes
Cannabinoid receptor 2 [17] = target: T1, Cannabinoid receptor 2; experiment: Agonist activity at human CB2 receptor assessed as inhibition of forskolin-induced cAMP production preincubated for 15 mins followed by forskolin challenge measured after 30 mins by HTRF assay; assay type: functional
Cannabinoid receptor 1 [18] = target: T2, Cannabinoid receptor 1; experiment: Displacement of [3H]-CP55940 from human CB1 receptor by liquid scintillation counting
Cannabinoid receptor 1 [19] = target: T3, Cannabinoid receptor 1; experiment: Displacement of [3H]-CP55940 from CB1 receptor of rat brain
Cannabinoid receptor 2 [20] = target: T1, Cannabinoid receptor 2; experiment: Displacement of [3H]-CP55940 from human CB2 receptor expressed in HEK cells by liquid scintillation counting; assay type: cell-based, HEK293
Cannabinoid receptor 2 [21] = target: T4, Cannabinoid receptor 2; experiment: Inverse agonist activity at rat CB2 receptor expressed in CHO-K1 cells assessed as inhibition of forskolin-induced cAMP accumulation; assay type: functional, cell-based
Cannabinoid receptor 1 [22] = target: T3, Cannabinoid receptor 1; experiment: Displacement of [3H]SR141716A from rat brain CB1 receptor by liquid scintillation spectrophotometry
Cannabinoid receptor 2 [23] = target: T1, Cannabinoid receptor 2; experiment: Agonist activity at human CB2 receptor expressed in CHO-K1 cells assessed as inhibition of forskolin-induced cAMP accumulation by TR-FRET assay; assay type: functional, cell-based
Cannabinoid receptor 1 [24] = target: T2, Cannabinoid receptor 1; experiment: Agonist activity at human CB1 receptor expressed in CHO-K1 cells assessed as inhibition of forskolin-induced cAMP accumulation by TR-FRET assay; assay type: functional, cell-based
Cannabinoid receptor 2 [25] = target: T1, Cannabinoid receptor 2; experiment: Agonist activity at human CB2 receptor expressed in human SK-N-MC cells by CRE-beta galactosidase reporter gene assay; assay type: functional, cell-based
Cannabinoid receptor 1 [26] = target: T2, Cannabinoid receptor 1; experiment: Agonist activity at human CB1 receptor expressed in human SK-N-MC cells by CRE-beta galactosidase reporter gene assay; assay type: functional, cell-based
[27] = Selectivity ratio of Ki for rat CB1 receptor to Ki for human CB2 receptor
[28] = Cmax in Sprague-Dawley rat at 10 mg/kg, po by UV-HPLC analysis; assay type: ADME, organism-based; design: dose 10 mg/kg, route oral; conditions: in vivo
[29] = AUC (0 to infinity) in Sprague-Dawley rat at 10 mg/kg, po by UV-HPLC analysis; assay type: ADME, organism-based; design: time infinity, dose 10 mg/kg, route oral; conditions: plasma
[30] = Half life in Sprague-Dawley rat at 10 mg/kg, po by UV-HPLC analysis; assay type: ADME, organism-based; design: dose 10 mg/kg, route oral; conditions: in vivo
Cannabinoid receptor 2 [31] = target: T1, Cannabinoid receptor 2; experiment: Binding affinity to human CB2 receptor
Cannabinoid receptor 1 [32] = target: T3, Cannabinoid receptor 1; experiment: Binding affinity to rat CB1 receptor
Cannabinoid receptor 1 [33] = target: T2, Cannabinoid receptor 1; experiment: Binding affinity to CB1 receptor (unknown origin)

T1 sequence (P34972 whole entry): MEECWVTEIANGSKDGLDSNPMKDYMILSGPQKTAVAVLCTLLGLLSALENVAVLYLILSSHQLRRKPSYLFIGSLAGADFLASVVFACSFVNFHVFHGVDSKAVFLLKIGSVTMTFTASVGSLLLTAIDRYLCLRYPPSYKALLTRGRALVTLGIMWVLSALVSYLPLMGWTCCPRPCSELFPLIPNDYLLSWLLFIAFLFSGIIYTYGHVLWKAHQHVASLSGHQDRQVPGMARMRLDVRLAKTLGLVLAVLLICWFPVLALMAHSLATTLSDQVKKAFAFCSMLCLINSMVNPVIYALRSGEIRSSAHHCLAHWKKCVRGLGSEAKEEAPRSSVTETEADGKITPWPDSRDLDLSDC

## CCC(C)Cn1c(C(C)(C)C)nc2cc(S(=O)(=O)c3ccnc(F)c3)ccc21 (stereo not drawn)
Cannabinoid receptor 2 [1]
  EC50: 0.26 nM
Cannabinoid receptor 1 [2]
  EC50: > 10000 nM
Homo sapiens [3]
  Ratio EC50: > 38000

## CCc1c(C)cc(C(=O)NC2(C(=O)O)CCCCC2)c(=O)n1Cc1ccc(F)cc1 [S-777469]
Cannabinoid receptor 1 [4]
  Ki: 4600 nM

## CCNC(=O)c1c(NC(=O)C23CC4CC(CC(C4)C2)C3)sc2c1CCOC2
Cannabinoid receptor 2 [5]
  EC50: 21 nM
Cannabinoid receptor 1 [6]
  EC50: > 1.5 nM

## CCCCCc1cc(O)c2c(c1)OC(C)(C)[C@@H]1CCC(C)=C[C@@H]21 [DRONABINOL]
Mus musculus
  ED50: 0.02 mg/kg

## O=S(=O)(c1ccc(Cl)cc1)c1cnc2c(NCC3CCOCC3)cccc2c1
Cannabinoid receptor 2 [7]
  EC50: < 1000 nM

## CCCCC/C=C\C/C=C\C/C=C\C/C=C\CCCC(=O)NCCCl
Cannabinoid receptor 1 [8]
  Ki: 1.4 nM
Cannabinoid receptor 2 [9]
  Ki: > 2000 nM
Rattus norvegicus
  Ratio Ki: > 1430

## CC(C)(C)c1cn(C[C@H]2CCCO2)/c(=N/C(=O)c2cc(C(F)(F)F)ccc2OCc2ccccn2)s1
Cannabinoid receptor 2 [10]
  EC50: 1 nM
Cannabinoid receptor 1 [11]; read-out: EC50 (the source's name)
  IC50: > 27000 nM

## O=C(Nc1sc2c(c1C(=O)N1CCC1)CC1CCC2O1)c1c(F)cccc1C(F)(F)F (stereo not drawn)
Homo sapiens [12]
  Ratio Ki: 10

## Cc1c2n(c(=O)c3cc(OC(=O)C(C)(C)C)cc(OC(=O)C(C)(C)C)c13)CCCC2
Cannabinoid receptor 2 [13]
  Ki: 2.4 nM
Cannabinoid receptor 2 [10]
  Ki: 6.8 nM
Cannabinoid receptor 1 [11]
  Ki: 2630 nM
[14]
  Ki: 5.4 nM
Cannabinoid receptor 2 [15]
  Ki: 4.8 nM
Homo sapiens [12]
  Ratio Ki: 450

## CCCn1c(C)c(C(=O)c2cc3ccsc3n2CCC)c2ccccc21
Cannabinoid receptor 2 [16]
  EC50: < 100 nM

## FC1(F)CCN(Cc2nc(-c3cccc(C(F)(F)F)c3)n3ccccc23)CC1
Cannabinoid receptor 2 [17]
  EC50: 17 nM

## CCCCCCC(C)(C)c1cc(O)c2c(c1)OC(C)(C)[C@@H]1CC=C(C)C[C@@H]21
Homo sapiens [12]
  Ratio Ki: 1.7

## Clc1ccc(-c2nc(N3CCCCC3)c3ccccc3n2)c(Cl)c1
Cannabinoid receptor 2 [17]
  Ki: < 1000 nM

## CN1CCCCC1Cn1cc(C(=O)c2cc([N+](=O)[O-])ccc2I)c2ccccc21 (racemic)
Cannabinoid receptor 1 [18]
  Ki: 580 nM
Cannabinoid receptor 1 [19]
  Ki: 280 nM
Cannabinoid receptor 2 [20]
  Ki: 7.1 nM
Cannabinoid receptor 2 [21]
  EC50: 216 nM

## CC(=O)Oc1cc(O[C@H](C)CCCc2ccccc2)cc2c1[C@@H]1C[C@H](O)CC[C@H]1[C@H](C)N2 [LEVONANTRADOL]
Cannabinoid receptor 1 [22]
  Ki: 2.9 nM

## CC1OCc2sc(NC(=O)C3C(C)(C)C3(C)C)c(C(=O)N3CC(F)(F)C3)c21 (stereo not drawn)
Homo sapiens [12]
  Ratio Ki: 10

## CCCCCCC(C)(C)c1cc(O)c2c(c1)OC(C)(C)C1CCC(=O)CC21 (stereo not drawn)
Homo sapiens [12]
  Ratio Ki: 1.2

## CN1CCCC[C@@H]1Cn1cc(C(=O)c2cc([N+](=O)[O-])ccc2I)c2ccccc21
Cannabinoid receptor 2 [21]
  EC50: 315 nM

## O=C(NC1CCCC1)c1ccc2c(c1)N(S(=O)(=O)c1ccc(F)cc1)CCS2
Cannabinoid receptor 2 [23]
  EC50: 1 nM
Cannabinoid receptor 1 [24]
  EC50: 10 nM

## O=C(N[C@H](CO)c1ccccc1)c1n[nH]c2c1CCCC[C@H]2Cc1cccc(Cl)c1
Cannabinoid receptor 2 [25]
  EC50: 12 nM
Cannabinoid receptor 1 [26]
  EC50: > 5000 nM

## CCCC(C)(C)c1ccc2c(c1)OC(C)(C)[C@@H]1CC=C(C)C[C@@H]21
[27]
  Ratio Ki: 200

## CC(C)(CO)NC(=O)c1nn(-c2ccc(Cl)cc2)c2c1C1CCC2C1 (stereo not drawn)
[28]
  Cmax: 1950 ng/mL
[29]
  AUC(0-inf): 12000 ng·h/mL
[30]
  half-life: 4.8 h

## CCCCCc1ccc2c(c1)OC(C)(C)[C@@H]1CC=C(C)C[C@@H]21
Cannabinoid receptor 2 [31]
  Ki: 32 nM
Cannabinoid receptor 1 [32]
  Ki: > 10000 nM
[27]
  Ratio Ki: > 312

## C[C@H](NS(=O)(=O)/C=C/c1n[nH]c2c1CCCC[C@@H]2Cc1cccc(F)c1)c1ccccc1
Cannabinoid receptor 2 [25]
  EC50: 9 nM
Cannabinoid receptor 1 [26]
  EC50: > 5000 nM
Homo sapiens [12]
  Ratio Ki: > 550

## CCCn1c(C)c(C(=O)c2cccc3cc(OC)ccc23)c2ccccc21
Cannabinoid receptor 1 [33]
  Ki: > 10000 nM

## C=C1CC[C@@H]2[C@@H](C1)c1c(OC)cc(C(C)(C)CCCCCC)cc1OC2(C)C
Homo sapiens [12]
  Ratio Ki: > 1000
